Read-outs that look alike come from different tables or passages of the source.
Experiments:
[1] = molecular target: T1, Human sEH (Homo sapiens, UniProt P34913); assay type: biochemical; settings: for fold lower potency against sEH: compared to 2-naphthalene analog 7-38
T1 sequence (P34913 1-555): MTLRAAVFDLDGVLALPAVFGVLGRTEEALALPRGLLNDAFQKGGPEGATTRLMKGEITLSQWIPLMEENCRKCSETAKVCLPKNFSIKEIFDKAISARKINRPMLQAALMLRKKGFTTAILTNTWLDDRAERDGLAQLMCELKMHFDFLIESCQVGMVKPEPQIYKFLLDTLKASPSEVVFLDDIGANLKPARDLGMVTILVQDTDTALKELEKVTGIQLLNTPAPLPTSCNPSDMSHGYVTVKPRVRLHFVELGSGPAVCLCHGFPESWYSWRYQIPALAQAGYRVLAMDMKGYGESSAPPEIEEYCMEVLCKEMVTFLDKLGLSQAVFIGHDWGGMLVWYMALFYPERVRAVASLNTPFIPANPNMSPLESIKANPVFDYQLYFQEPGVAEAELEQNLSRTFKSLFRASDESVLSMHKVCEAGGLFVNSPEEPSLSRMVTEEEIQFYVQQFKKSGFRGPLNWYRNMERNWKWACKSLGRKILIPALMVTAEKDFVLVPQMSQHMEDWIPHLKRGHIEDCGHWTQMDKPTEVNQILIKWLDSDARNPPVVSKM

[2] = in vitro; settings: human, microsomes
[3] = compared to phenyl compound 7-12

Cc1ccc(S(=O)(=O)N2CCC(C(=O)Nc3ccc([N+](=O)[O-])cc3)CC2)c(C)c1 [Compound 7-35]
fold increase in potency (lower IC50) [1, 3]: 2 fold

Cc1ccc(S(=O)(=O)N2CCC(C(=O)Nc3ccccc3O)CC2)c(C)c1 [Compound 7-9]
CLint scaled at 1.5 h [2]: 520 mL/min/kg

Cc1ccc(S(=O)(=O)N2CCC(C(=O)Nc3cccc4cccnc34)CC2)c(C)c1 [Compound 7-20]
CLint scaled at 1.5 h [2]: 120 mL/min/kg

Cc1ccc(S(=O)(=O)N2CCC(C(=O)Nc3ccc(N4CCOCC4)cc3)CC2)c(C)c1 [Compound 7-14]
fold decrease in potency [1, 3]: 10 fold

Cc1ccc(S(=O)(=O)N2CCC(C(=O)Nc3ccc4ccccc4c3)CC2)c(C)c1 [Compound 7-42]
CLint scaled at 1.5 h [2]: 140 mL/min/kg
fold lower potency against sEH [1]: 180 fold

COC(=O)c1ccc(NC(=O)C2CCN(S(=O)(=O)c3ccc(C)cc3C)CC2)cc1 [Compound 7-11]
CLint scaled at 1.5 h [2]: 340 mL/min/kg

Cc1ccc(S(=O)(=O)N2CCC(C(=O)Nc3ccc(F)cc3)CC2)c(C)c1 [Compound 7-39]
fold lower potency against sEH [1]: 5 fold

Cc1ccc(S(=O)(=O)N2CCC(C(=O)Nc3ccc(Br)cc3)CC2)c(C)c1 [Compound 7-40]
fold lower potency against sEH [1]: 30 fold

Cc1ccc(S(=O)(=O)N2CCC(C(=O)Nc3ccc(OC(F)(F)F)cc3)CC2)c(C)c1 [Compound 7-12]
fold drop in potency against the human sEH ([1]; compared to cycloalkyl lead compound 2): 15 fold

Cc1ccc(S(=O)(=O)N2CCC(C(=O)Nc3ccc(Cl)c(C(F)(F)F)c3)CC2)c(C)c1 [Compound 7-41]
fold lower potency against sEH [1]: 50 fold

Cc1ccc(S(=O)(=O)N2CCC(C(=O)NC3CC3)CC2)c(C)c1 [Compound 7-24]
CLint scaled at 1.5 h [2]: 7 mL/min/kg
in vitro metabolic stability in human liver microsomes (in words): intermediate metabolic profiles

Cc1ccc(S(=O)(=O)N2CCC(C(=O)Nc3ccc(C(C)C)cc3)CC2)c(C)c1 [Compound 7-37]
CLint scaled at 1.5 h [2]: 50 mL/min/kg
fold increase in potency (lower IC50) [1]: 3 fold

Cc1ccc(S(=O)(=O)N2CCC(C(=O)Nc3cccc4cnccc34)CC2)c(C)c1 [Compound 7-44]
CLint scaled at 1.5 h [2]: 5.6 mL/min/kg
fold lower potency against sEH [1]: 15 fold

Cc1ccc(S(=O)(=O)N2CCC(C(=O)NC34CC5CC(CC(C5)C3)C4)CC2)c(C)c1 [Compound 7-6]
CLint scaled at 1.5 h [2]: 90 mL/min/kg

Cc1ccc(S(=O)(=O)N2CCC(C(=O)Nc3ccc4c(c3)OCO4)CC2)c(C)c1 [Compound 7-23]
CLint scaled at 1.5 h [2]: 28 mL/min/kg
fold increase in potency (lower IC50) [1, 3]: 4 fold
in vitro metabolic stability in human liver microsomes (in words): intermediate metabolic profiles

Cc1ccc(S(=O)(=O)N2CCC(C(=O)Nc3cccc(C(F)(F)F)c3)CC2)c(C)c1 [Compound 7-16]
fold decrease in potency [1, 3]: 30 fold

Cc1ccc(S(=O)(=O)N2CCC(C(=O)Nc3ccc4cc(C(=O)O)ccc4c3)CC2)c(C)c1 [Compound 7-45]
CLint scaled at 1.5 h [2]: 35 mL/min/kg

Cc1ccc(S(=O)(=O)N2CCC(C(=O)NC3CCCC3)CC2)c(C)c1 [Compound 7-3]
CLint scaled at 1.5 h [2]: 90 mL/min/kg

Cc1ccc(S(=O)(=O)N2CCC(C(=O)Nc3ccc(Cl)c(Cl)c3)CC2)c(C)c1 [Compound 7-19]
fold decrease in potency [1, 3]: 2 fold

Cc1ccc(S(=O)(=O)N2CCC(C(=O)Nc3ccc(S(=O)(=O)C(F)(F)F)cc3)CC2)c(C)c1 [Compound 7-38]
CLint scaled at 1.5 h [2]: 35 mL/min/kg
